test system: BT-474 cancer cells; experiment: Inhibition of BT-474 cell proliferation (CellTiter-Glo); type: cell-based; conditions: Homo sapiens, BT-474 cells, 120 hours
Protocol: BT-474 cancer cells were cultured by using RPMI-1640 medium containing 20% FBS. The BT-474 cancer cells were seeded to a white clear bottom 96 well plate (Corning) at 5,000 cells per well 48 hours before the BT-474 cancer cells were treated with Example Compounds. Example Compounds were diluted in dimethylsulfoxide (3-fold diluted, total 11 concentrations) and 1 μL each was injected so that the final concentration was 0.2 nM to 10 μM. For the measurement of living cells, the cells were stored at room temperature for 10 minutes using the CellTiter-Glo cell viability reagent (Promega) after a predetermined time (120 hours) after the treatment of Example Compounds, and then the luminescence intensity was measured using a reader (SynergyNeo, Biotek). Each test was repeated three times.
The result value was calculated as a cell growth rate (%) compared to a control group. Graphs were plotted and GI50 values were calculated using the GraphPad Prism version 8.0 program, and the results are shown in Table 18 below.

SMILES	GI50
COc1cc2ncnc(Nc3cc(C)c(Oc4ccn5ncnc5c4)cc3OC(F)(F)F)c2cc1NC(=O)/C(F)=C\[C@H]1CCCN1C [Example 105, (R,E)-N-(4-((4-([1,2,4]triazolo[1,5-a]pyridin-7-yloxy)-5-methyl-2-(trifluoromethoxy)phenyl)amino)-7-methoxyquinazolin-6-yl)-2-fluoro-3-(1-methylpyrrolidin-2-yl)acrylamide]	> 500 nM
COc1cc2ncnc(Nc3ccc(Oc4ccn5ncnc5c4)cc3OC3COC3)c2cc1NC(=O)/C(F)=C\[C@H]1CCCN1C(=O)OC(C)(C)C [Example 109, tert-butyl (R,E)-2-(3-((4-((4-([1,2,4]triazolo[1,5-a]pyridin-7-yloxy)-2-(oxetan-3-yloxy)phenyl)amino)-7-methoxyquinazolin-6-yl)amino)-2-fluoro-3-oxoprop-1-en-1-yl)pyrrolidine-1-carboxylate]	> 500 nM
COc1cc(Oc2ccn3ncnc3c2)c(C)cc1Nc1ncnc2cc(N3CC(F)(F)C3)c(NC(=O)/C(F)=C/[C@H]3CCCN3C)cc12 [Example 114, (R,Z)—N-(4-((4-([1,2,4]triazolo[1,5-a]pyridin-7-yloxy)-2-methoxy-5-methylphenyl)amino)-7-(3,3-difluoroazetidin-1-yl)quinazolin-6-yl)-2-fluoro-3-(1-methylpyrrolidin-2-yl)acrylamide]	≤ 50 nM
CCOc1cc2ncnc(Nc3cc(C)c(Oc4ccn5ncnc5c4)cc3OC)c2cc1NC(=O)/C(F)=C/[C@H]1CCCN1C [Example 120, (R,Z)—N-(4-((4-([1,2,4]triazolo[1,5-a]pyridin-7-yloxy)-2-methoxy-5-methylphenyl)amino)-7-ethoxyquinazolin-6-yl)-2-fluoro-3-(1-methylpyrrolidin-2-yl)acrylamide]	≤ 50 nM
COc1cc2ncnc(Nc3cc(C)c(Oc4ccc(N(C)C)cc4)cc3OC)c2cc1NC(=O)/C(F)=C\[C@H]1CCCN1C [Example 123, (R,E)-N-(4-((4-(4-(dimethylamino)phenoxy)-2-methoxy-5-methylphenyl)amino)-7-methoxyquinazolin-6-yl)-2-fluoro-3-(1-methylpyrrolidin-2-yl)acrylamide]	50 to 100 nM
COc1cc2ncnc(Nc3cc(C)c(Oc4ccc(C(=O)N(C)C)cc4)cc3OC)c2cc1NC(=O)/C(F)=C/[C@H]1CCCN1C [Example 125, (R,Z)-4-(4-((6-(2-fluoro-3-(1-methylpyrrolidin-2-yl)acrylamido)-7-methoxyquinazolin-4-yl)amino)-5-methoxy-2-methylphenoxy)-N,N-dimethylbenzamide]	50 to 100 nM
COc1cc2ncnc(Nc3cc(C)c(Oc4ccc(C(=O)N(C)C)cc4)cc3OC)c2cc1NC(=O)/C(F)=C\[C@H]1CCCN1C [Example 126, (R,E)-4-(4-((6-(2-fluoro-3-(1-methylpyrrolidin-2-yl)acrylamido)-7-methoxyquinazolin-4-yl)amino)-5-methoxy-2-methylphenoxy)-N,N-dimethylbenzamide]	100 to 500 nM
COc1cc2ncnc(Nc3cc(N(C)C)c(Oc4ccn5ncnc5c4)cc3OC)c2cc1NC(=O)/C(F)=C\[C@H]1CCCN1C [Example 127, (R,E)-N-(4-((4-([1,2,4]triazolo[1,5-a]pyridin-7-yloxy)-5-(dimethylamino)-2-methoxyphenyl)amino)-7-methoxyquinazolin-6-yl)-2-fluoro-3-(1-methylpyrrolidin-2-yl)acrylamide]	100 to 500 nM
COc1cc2ncnc(Nc3cc(C)c(Oc4ccn5ncnc5c4)cc3OC)c2cc1NC(=O)/C(F)=C/[C@H]1CCCCN1C [Example 131, (R,Z)—N-(4-((4-([1,2,4]triazolo[1,5-a]pyridin-7-yloxy)-2-methoxy-5-methylphenyl)amino)-7-methoxyquinazolin-6-yl)-2-fluoro-3-(1-methylpiperidin-2-yl)acrylamide]	≤ 50 nM
CCOc1cc2ncc(C#N)c(Nc3cc(C)c(Oc4ccn5ncnc5c4)cc3OC)c2cc1NC(=O)/C(F)=C\[C@H]1CCCN1C [Example 132, (R,E)-N-(4-((4-([1,2,4]triazolo[1,5-a]pyridin-7-yloxy)-2-methoxy-5-methylphenyl)amino)-3-cyano-7-ethoxyquinolin-6-yl)-2-fluoro-3-(1-methylpyrrolidin-2-yl)acrylamide]	100 to 500 nM
COc1cc2ncnc(Nc3cc(C)c(Oc4cccc(NC(C)=O)c4)cc3OC)c2cc1NC(=O)/C(F)=C/[C@H]1CCCN1C [Example 133, (R,Z)—N-(4-((4-(3-acetamidophenoxy)-2-methoxy-5-methylphenyl)amino)-7-methoxyquinazolin-6-yl)-2-fluoro-3-(1-methylpyrrolidin-2-yl)acrylamide]	≤ 50 nM
COc1cc2ncnc(Nc3cc(C)c(Oc4ccn5ncnc5c4)cc3OC)c2cc1NC(=O)/C(F)=C/[C@H]1CCCN1 [Example 135, (R,Z)—N-(4-((4-([1,2,4]triazolo[1,5-a]pyridin-7-yloxy)-2-methoxy-5-methylphenyl)amino)-7-methoxyquinazolin-6-yl)-2-fluoro-3-(pyrrolidin-2-yl)acrylamide]	≤ 50 nM
COc1cc2ncnc(Nc3cc(C4CC4)c(Oc4ccn5ncnc5c4)cc3OC)c2cc1NC(=O)/C(F)=C/[C@H]1CCCN1C [Example 137, (R,Z)—N-(4-((4-([1,2,4]triazolo[1,5-a]pyridin-7-yloxy)-5-cyclopropyl-2-methoxyphenyl)amino)-7-methoxyquinazolin-6-yl)-2-fluoro-3-(1-methylpyrrolidin-2-yl)acrylamide]	50 to 100 nM

The remaining lines, values ahead:

GI50	SMILES
≤ 50 nM	COCCOc1cc2ncnc(Nc3cc(C)c(Oc4ccn5ncnc5c4)cc3OC)c2cc1NC(=O)/C(F)=C\[C@H]1CCCN1C [Example 94, (R,E)-N-(4-((4-([1,2,4]triazolo[1,5-a]pyridin-7-yloxy)-2-methoxy-5-methylphenyl)amino)-7-(2-methoxyethoxy)quinazolin-6-yl)-2-fluoro-3-(1-methylpyrrolidin-2-yl)acrylamide]
≤ 50 nM	COc1cc(Oc2ccn3ncnc3c2)c(C)cc1Nc1ncnc2cc(OC3CCOC3)c(NC(=O)/C(F)=C/[C@H]3CCCN3C)cc12 (stereo partly drawn) [Example 97, (Z)—N-(4-((4-([1,2,4]triazolo[1,5-a]pyridin-7-yloxy)-2-methoxy-5-methylphenyl)amino)-7-((tetrahydrofuran-3-yl)oxy)quinazolin-6-yl)-2-fluoro-3-((R)-1-methylpyrrolidin-2-yl)acrylamide]
≤ 50 nM	COc1cc(Oc2ccn3ncnc3c2)c(C)cc1Nc1ncnc2cc(OC(F)F)c(NC(=O)/C(F)=C/[C@H]3CCCN3C)cc12 [Example 98, (R,Z)—N-(4-((4-([1,2,4]triazolo[1,5-a]pyridin-7-yloxy)-2-methoxy-5-methylphenyl)amino)-7-(difluoromethoxy)quinazolin-6-yl)-2-fluoro-3-(1-methylpyrrolidin-2-yl)acrylamide]
≤ 50 nM	COc1cc(Oc2ccn3ncnc3c2)c(C)cc1Nc1ncnc2cc(OC(F)F)c(NC(=O)/C(F)=C\[C@H]3CCCN3C)cc12 [Example 99, (R,E)-N-(4-((4-([1,2,4]triazolo[1,5-a]pyridin-7-yloxy)-2-methoxy-5-methylphenyl)amino)-7-(difluoromethoxy)quinazolin-6-yl)-2-fluoro-3-(1-methylpyrrolidin-2-yl)acrylamide]
≤ 50 nM	COc1cc(Oc2ccn3ncnc3c2)c(C)cc1Nc1ncnc2cc(OCCN3CCOCC3)c(NC(=O)/C(F)=C/[C@H]3CCCN3C)cc12 [Example 101, (R,Z)—N-(4-((4-([1,2,4]triazolo[1,5-a]pyridin-7-yloxy)-2-methoxy-5-methylphenyl)amino)-7-(2-morpholinoethoxy)quinazolin-6-yl)-2-fluoro-3-(1-methylpyrrolidin-2-yl)acrylamide]
≤ 50 nM	COc1cc(Oc2ccn3ncnc3c2)c(C)cc1Nc1ncnc2cc(F)c(NC(=O)/C(F)=C\[C@H]3CCCN3C)cc12 [Example 102, (R,E)-N-(4-((4-([1,2,4]triazolo[1,5-a]pyridin-7-yloxy)-2-methoxy-5-methylphenyl)amino)-7-fluoroquinazolin-6-yl)-2-fluoro-3-(1-methylpyrrolidin-2-yl)acrylamide]
≤ 50 nM	COc1cc(Oc2ccn3ncnc3c2)c(C)cc1Nc1ncnc2cc(F)c(NC(=O)/C(F)=C/[C@H]3CCCN3C)cc12 [Example 103, (R,Z)—N-(4-((4-([1,2,4]triazolo[1,5-a]pyridin-7-yloxy)-2-methoxy-5-methylphenyl)amino)-7-fluoroquinazolin-6-yl)-2-fluoro-3-(1-methylpyrrolidin-2-yl)acrylamide]
≤ 50 nM	COc1cc2ncnc(Nc3cc(C)c(Oc4ccn5ncnc5c4)cc3OC3CC3)c2cc1NC(=O)/C(F)=C\[C@H]1CCCN1C [Example 106, (R,E)-N-(4-((4-([1,2,4]triazolo[1,5-a]pyridin-7-yloxy)-2-cyclopropoxy-5-methylphenyl)amino)-7-methoxyquinazolin-6-yl)-2-fluoro-3-(1-methylpyrrolidin-2-yl)acrylamide]
≤ 50 nM	COc1cc2ncnc(Nc3cc(C)c(Oc4ccn5ncnc5c4)cc3OC3CC3)c2cc1NC(=O)/C(F)=C/[C@H]1CCCN1C [Example 107, (R,Z)—N-(4-((4-([1,2,4]triazolo[1,5-a]pyridin-7-yloxy)-2-cyclopropoxy-5-methylphenyl)amino)-7-methoxyquinazolin-6-yl)-2-fluoro-3-(1-methylpyrrolidin-2-yl)acrylamide]
≤ 50 nM	COc1cc2ncnc(Nc3cc(C)c(Oc4ccn5ncnc5c4)cc3OC)c2cc1NC(=O)/C(F)=C/[C@@H]1CCCN1C [Example 112, (S,Z)—N-(4-((4-([1,2,4]triazolo[1,5-a]pyridin-7-yloxy)-2-methoxy-5-methylphenyl)amino)-7-methoxyquinazolin-6-yl)-2-fluoro-3-(1-methylpyrrolidin-2-yl)acrylamide]
